Assay [1] deals with MCF7. Briefly: Induction of oxidative stress in human MCF7 cells assessed as glutathione peroxidase activity per mg of protein at 1/10 of IC50 after 24 hrs (reference value: 9.3 +/- 1 U). Type of assay: functional.
For assay [2], the system named is MCF7. Description: Cytotoxicity against human MCF7 cells assessed as protein level per 10 '6 cells at 1/10 of IC50 after 24 hrs (reference value: 110.5 +/- 12.3 ug). Type of assay: functional.
Assay [3] has as its system MCF7. Description: Cytotoxicity against human MCF7 cells after 48 hrs by SRB colorimetric assay. Type of assay: functional, cell-based. The settings on record: MCF7, 48 h.
For assay [4], the system named is MCF7. Briefly: Induction of oxidative stress in human MCF7 cells assessed as catalase activity per mg of protein at 1/10 of IC50 after 24 hrs (reference value: 7.6 +/- 0.7 U). The format is functional.
Assay [5] deals with MCF7. Description: Induction of oxidative stress in human MCF7 cells assessed as hydrogen peroxide level per mg of protein at 1/10 of IC50 after 24 hrs (reference value: 15.7 +/- 1.6 nmol). Type of assay: functional.
Assay [6] has as its system MCF7. Description: Cytotoxicity against human MCF7 cells assessed as DNA level per 10 '6 cells at 1/10 of IC50 after 24 hrs (reference value: 8.5 +/- 0.8 ug). The format is functional.
Assay [7] concerns MCF7. Briefly: Induction of oxidative stress in human MCF7 cells assessed as superoxide dismutase activity per mg of protein at 1/10 of IC50 after 24 hrs (reference value: 40.3 +/- 4.75 U). The format is functional.
Assay [8] concerns MCF7. Briefly: Induction of oxidative stress in human MCF7 cells assessed as GSH level per mg of protein at 1/10 of IC50 after 24 hrs (reference value: 40 +/- 5 nmol). The format is functional.
The subject of assay [9] is MCF7. Briefly: Cytotoxicity against human MCF7 cells assessed as nitric oxide level per mg protein at 1/10 of IC50 after 24 hrs (reference value: 1.9 +/- 0.16 umol). Type of assay: functional.
In assay [10] the test system is MCF7. Briefly: Cytotoxicity against human MCF7 cells assessed as RNA level per 10 '6 cells at 1/10 of IC50 after 24 hrs (reference value: 15.3 +/- 1.6 ug). Type of assay: functional.

pIC50: −log10 of the molar value.

As for `COc1cc(/C=N/n2c(C)nc3c(cnn3S(=O)(=O)c3ccc(Cl)cc3)c2=O)cc(OC)c1OC`, the Activity turned out to be 6.8 U in the assay on MCF7 [1]; 78.3 µg in the assay on MCF7 [2]; 4.3 U in the assay on MCF7 [4]; 27.8 nmol in the assay with MCF7 [5]; 5.3 µg with MCF7 [6]; 80 U in the assay on MCF7 [7]. Further, the Activity worked out at 34.2 nmol in the assay with MCF7 [8], 2.8 µmol in the assay on MCF7 [9] and 7.22 µg with MCF7 [10]. In the assay with MCF7 [3], the negative-log IC50 (pIC50) – broadly, −log10 of the IC50, conventionally taken in molar units – is 4.56.

With `Cc1nc2c(cnn2-c2ccc(Cl)cc2)c(=O)n1/N=C/c1ccccc1`, the Activity was found to be 6 U in the assay with MCF7 [1]; 55.4 µg in the assay on MCF7 [2]; 3.82 U in the assay on MCF7 [4]; 30 nmol in the assay on MCF7 [5]; 5.11 µg in the assay with MCF7 [6]; 95.25 U in the assay with MCF7 [7]. Moreover, the Activity in the assay on MCF7 [8] was found to be 30.4 nmol; in the assay with MCF7 [9], 3 µmol; in the assay on MCF7 [10], 5 µg. This molecule also had a pIC50 with MCF7 [3] of 4.64.

In the assay with MCF7 [3], `CC(=O)Nc1[nH]ncc1C(=O)N/N=C/c1ccccc1` showed a pIC50 of 4.38.

Molecule `Cc1nc2c(cnn2-c2ccccc2)c(=O)n1-c1cnc2ccccc2c1` gave a pIC50 in the assay on MCF7 [3] of 5.82.

Molecule `COc1ccc(/C=N/n2c(C)nc3c(cnn3S(=O)(=O)c3ccc(Cl)cc3)c2=O)cc1OC` showed a negative-log IC50 (pIC50) in the assay on MCF7 [3] of 4.47.

Consider `COc1cc(/C=N/n2c(C)nc3c(cnn3-c3ccc(Cl)cc3)c2=O)ccc1O`, for which the Activity with MCF7 [1] came out at 5.4 U; in the assay on MCF7 [2], 42.6 µg; in the assay with MCF7 [4], 3.5 U; in the assay with MCF7 [5], 39.4 nmol; in the assay with MCF7 [6] it was 4.5 µg; with MCF7 [7], 100.3 U. Also, the Activity in the assay with MCF7 [8] stood at 23.5 nmol; with MCF7 [9], 3.6 µmol; with MCF7 [10], 3.2 µg. In the assay on MCF7 [3], this molecule had a negative-log IC50 (pIC50) of 4.70.

For `COc1cc(/C=N/n2c(C)nc3c(cnn3-c3ccc(Cl)cc3)c2=O)cc(OC)c1OC`, the Activity is 4.85 U with MCF7 [1]; 27.5 µg with MCF7 [2]; 2.2 U with MCF7 [4]; 53.3 nmol in the assay on MCF7 [5]; 3 µg with MCF7 [6]; 110 U in the assay with MCF7 [7]. In addition, the Activity with MCF7 [8] was determined as 17.8 nmol; in the assay on MCF7 [9], 4.4 µmol; in the assay on MCF7 [10] it was 2.6 µg. In the assay with MCF7 [3], this molecule gave a pIC50 of 5.12.

For the molecule `COc1cc(/C=N/NC(=O)c2cn[nH]c2NC(C)=O)cc(OC)c1OC`, the Activity with MCF7 [1] amounted to 7.33 U; in the assay on MCF7 [2] it was 85.8 µg; with MCF7 [4], 5.85 U; in the assay on MCF7 [5], 25.6 nmol; with MCF7 [6], 6.1 µg; in the assay with MCF7 [7] it was 75.44 U. Further, the values for the Activity in the assay with MCF7 [8], in the assay with MCF7 [9] and with MCF7 [10] were 30.11 nmol, 3 µmol and 8.8 µg, respectively. Moreover, the pIC50 in the assay on MCF7 [3] was 4.49.

With `COc1ccc(/C=N/n2c(C)nc3c(cnn3-c3ccc(Cl)cc3)c2=O)cc1`, the Activity in the assay on MCF7 [1] was 8 U; in the assay on MCF7 [2] it was 80.2 µg; in the assay with MCF7 [4], 7.4 U; with MCF7 [5] it was 24.8 nmol; with MCF7 [6], 7 µg; in the assay on MCF7 [7], 50 U. Further, the results for the Activity in the assay with MCF7 [8], in the assay with MCF7 [9] and with MCF7 [10] were 36.3 nmol, 2.9 µmol and 12 µg, respectively. Also, the negative logarithm of the IC50 (pIC50) with MCF7 [3] was 4.41.

Take `COc1ccc(/C=N/n2c(C)nc3c(cnn3S(=O)(=O)c3ccc(Cl)cc3)c2=O)cc1`: the pIC50 with MCF7 [3] is 4.38.

`COc1cc(C(=O)Nn2c(C)nc3c(cnn3S(=O)(=O)c3ccc(Cl)cc3)c2=O)cc(OC)c1OC` had a pIC50 in the assay with MCF7 [3] of 4.45.

Molecule `Cc1nc2c(cnn2S(=O)(=O)c2ccc(Cl)cc2)c(=O)n1/N=C/c1ccccc1` showed a pIC50 in the assay on MCF7 [3] of 4.65.

For `COc1ccc(/C=N/NC(=O)c2cn[nH]c2NC(C)=O)cc1OC`, the pIC50 in the assay on MCF7 [3] was 4.43.

In the assay with MCF7 [3], `COc1ccc(/C=N/n2c(C)nc3c(cnn3-c3ccc(Cl)cc3)c2=O)cc1OC` showed a pIC50 of 4.60.

Molecule `COc1ccc(/C=N/NC(=O)c2cn[nH]c2NC(C)=O)cc1` gave a negative-log IC50 (pIC50) in the assay with MCF7 [3] of 4.21.

Source of the values: ChEMBL document CHEMBL1914292, “Synthesis and in vitro cytotoxic activity of novel pyrazolo[3,4-d]pyrimidines and related pyrazole hydrazones toward breast adenocarcinoma MCF-7 cell line” (Bioorg Med Chem, 2011).
